In general, Km refers to the substrate concentration at which the rate is half of its maximum.

Among the data in publication PMC3476531, “Synergy of Peptide and Sugar in O-GlcNAcase Substrate Recognition” (Chemistry & Biology, 2012) are Km and KM (hOGA) of the glycopeptide substrate (substrate competition assay with 4MU-GlcNAc as reporter substrate) values, retold here.

The target of one assay is T1, hOGA (Homo sapiens, UniProt O60502).
T1 sequence (O60502 1-916): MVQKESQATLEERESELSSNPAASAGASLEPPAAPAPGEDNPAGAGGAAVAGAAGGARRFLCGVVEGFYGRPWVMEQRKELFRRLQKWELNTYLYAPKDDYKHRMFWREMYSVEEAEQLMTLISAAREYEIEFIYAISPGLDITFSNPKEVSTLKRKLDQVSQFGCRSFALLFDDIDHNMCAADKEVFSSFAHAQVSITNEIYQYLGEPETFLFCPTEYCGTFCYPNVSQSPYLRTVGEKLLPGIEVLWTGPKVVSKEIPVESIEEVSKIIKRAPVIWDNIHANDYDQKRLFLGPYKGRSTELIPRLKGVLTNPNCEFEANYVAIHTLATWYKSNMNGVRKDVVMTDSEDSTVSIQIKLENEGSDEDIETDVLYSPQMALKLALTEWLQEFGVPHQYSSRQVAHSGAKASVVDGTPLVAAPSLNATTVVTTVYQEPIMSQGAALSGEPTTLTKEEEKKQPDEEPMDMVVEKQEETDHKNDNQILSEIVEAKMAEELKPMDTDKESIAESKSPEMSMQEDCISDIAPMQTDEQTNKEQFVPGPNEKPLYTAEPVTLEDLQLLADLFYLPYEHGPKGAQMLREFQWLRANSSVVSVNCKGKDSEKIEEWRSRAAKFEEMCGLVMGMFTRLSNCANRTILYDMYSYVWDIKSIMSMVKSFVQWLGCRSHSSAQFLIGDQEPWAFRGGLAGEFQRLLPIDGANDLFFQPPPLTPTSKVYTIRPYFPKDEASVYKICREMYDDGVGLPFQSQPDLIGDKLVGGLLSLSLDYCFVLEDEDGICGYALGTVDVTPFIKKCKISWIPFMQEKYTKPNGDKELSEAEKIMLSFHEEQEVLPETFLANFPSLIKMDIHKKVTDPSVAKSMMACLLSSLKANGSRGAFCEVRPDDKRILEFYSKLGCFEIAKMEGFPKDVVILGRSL
Description: hOGA glycopeptide hydrolysis, substrate competition assay with 4MU-GlcNAc reporter. Type of assay: biochemical. More on the design: GST (N); made in house; host or cells: transiently transfected HEK293 cells. As to conditions: wild-type full-length hOGA; competition with 4MU-GlcNAc reporter substrate; 37°C, 50 mM citrate-phosphate buffer pH 7.4, 0.1 mg/ml BSA; triplicate; ± error of curve-fit; read-out: Michaelis constant (KM) of glycopeptide substrate for hOGA. The method, then:
Protein was expressed in transiently transfected HEK293 cells and purified via glutathione sepharose affinity chromatography.
hOGA and CpOGA glycopeptide hydrolysis assays were carried out as described previously ([Dorfmueller et al., 2006; Schimpl et al., 2010]) using multisubstrate enzyme kinetics with the fluorigenic pseudosubstrate 4MU-GlcNAc as the reporter substrate. […] Reactions were performed at 37°C in 50 mM citrate-phosphate buffer (pH 7.4) and 0.1 mg/ml BSA. Experiments were performed in triplicate, and data were analyzed and plotted with GraphPad PRISM.

The target in assay [1] is T2, human O-GlcNAcase (hOGA), wild-type (human) (UniProt O60502).
T2 sequence: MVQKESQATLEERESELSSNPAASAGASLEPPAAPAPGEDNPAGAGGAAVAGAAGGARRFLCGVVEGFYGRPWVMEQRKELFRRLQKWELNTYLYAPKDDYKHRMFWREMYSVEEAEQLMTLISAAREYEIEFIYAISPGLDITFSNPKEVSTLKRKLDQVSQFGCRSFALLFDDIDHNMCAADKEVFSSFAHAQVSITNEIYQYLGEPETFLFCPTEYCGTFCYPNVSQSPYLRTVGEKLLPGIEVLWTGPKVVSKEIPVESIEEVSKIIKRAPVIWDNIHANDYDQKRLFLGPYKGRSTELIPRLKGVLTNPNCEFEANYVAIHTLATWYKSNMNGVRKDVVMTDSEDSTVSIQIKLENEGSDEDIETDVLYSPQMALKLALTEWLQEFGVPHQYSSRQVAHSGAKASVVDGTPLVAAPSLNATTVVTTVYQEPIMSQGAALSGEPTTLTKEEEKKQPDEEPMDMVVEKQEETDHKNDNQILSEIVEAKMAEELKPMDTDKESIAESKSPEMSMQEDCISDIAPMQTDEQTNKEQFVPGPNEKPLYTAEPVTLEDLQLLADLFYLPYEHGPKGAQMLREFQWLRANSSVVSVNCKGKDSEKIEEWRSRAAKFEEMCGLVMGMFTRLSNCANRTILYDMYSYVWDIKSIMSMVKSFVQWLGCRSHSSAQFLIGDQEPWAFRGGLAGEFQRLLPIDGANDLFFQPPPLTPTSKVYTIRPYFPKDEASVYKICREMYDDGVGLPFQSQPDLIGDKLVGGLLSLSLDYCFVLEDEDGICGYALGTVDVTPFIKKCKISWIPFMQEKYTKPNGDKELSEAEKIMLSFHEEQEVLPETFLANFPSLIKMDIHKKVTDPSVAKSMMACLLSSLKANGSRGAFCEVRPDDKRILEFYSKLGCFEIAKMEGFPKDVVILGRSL

As to “QLVVS(O-GlcNAc)TPPPG [altered p53 glycopeptide with intramolecular hydrogen bond disrupted]”, the Michaelis constant (Km) at hOGA is 1800 µM.

Turning to “QLVVS(O-GlcNAc)VPPPG [altered p53 glycopeptide with intramolecular hydrogen bond disrupted]”, at hOGA, the Km is 3700 µM.

Consider VPHS(O-GlcNAc)SAQ, for which, at hOGA, the Km turned out to be 810 ± 140 µM.

Take “p53 peptide (Ser149) QLVDS(O-GlcNAc)TPPPG, original sequence of Table 2”: the KM (hOGA) of the glycopeptide substrate (substrate competition assay with 4MU-GlcNAc as reporter substrate) in assay [1] came out at 21 µM.
